Two molecules from patent US20030124132A1 (University of Texas, published 2003) can be followed below.

One assay relates to bEnd 3 cells. In words: Cell bound coagulation assay on stimulated endothelial cells (Factor Xa generation). The class given is cell-based, mouse. On the procedure:
(§1) To assay the coagulation induction of stimulated versus unstimulated endothelial cells, bend 3 cells were seeded in 48 well tissue culture plates at a density of 1×10^4 cells per well and allowed to adhere overnight. Cells were stimulated with endotoxin (0.5 μg/ml and 10 μg/ml) or TNFα (500 U/ml) for 4 h at 37° C. […] After incubation for 45 min at room temperature, cells were washed and incubated with various coagulation factor mixes as follows: (1) 0.5 μg/ml factor VIIa in a mix containing 2.8 μg/ml factor IX, 3.4 μg/ml factor X, 50 μM phospholipids, in calcium buffer (as specified above); (2) 0.01 μg/ml factor VIIa in a mix as in (1); (3) 2 μg/ml factor VII (Calbiochem-Novabiochem, San Diego, Calif.) in a mix as in (1); (4) 2 μg/ml factor VII. 0.01 μg/ml factor VIIa in a mix as in (1). The supernatant of wells was transferred into a 96 well ELISA plate. Substrate S2765 was added and Factor Xa generation measured alongside different concentrations of Factor Xa standard (7 nkatS2222; 0.7 nkatS2222; 0.07 nkatS2222). OD405 nm values were calculated as nkatS2222 Factor Xa from the Factor Xa standard curve.
as §1, with “bEnd” for “To assay the coagulation induction of stimulated versus unstimulated endothelial cells, bend”, “with” for “with various”, “mix” for “mixes”, “follows:” for “follows: (1)”, “buffer;” for “buffer (as specified above); (2) 0.01 μg/ml factor VIIa in a mix as in (1); (3) 2 μg/ml factor VII (Calbiochem-Novabiochem, San Diego, Calif.) in a mix as in (1); (4) 2 μg/ml factor VII. 0.01 μg/ml factor VIIa in a mix as in (1). The”

The subject of assay [1] is tissue factor on HUVEC cells. In words: FACS analysis of tissue factor expression on endothelial cells. The class given is cell-based, human. The following applies: TNFα 500 U/ml, LPS 10 μg/ml, VEGF 1 nM, alone or in combination, 6 h. How it is done: To analyze tissue factor expression on the surface of endothelial cells, HUVEC cells were incubated with TNFα (500 U/ml), LPS (10 μg/ml) or vascular endothelial growth factor (VEGF, 1 nM) alone or in combination for 6 h at 37°. Cells were then detached and stained for surface expression of human tissue factor with a sheep-anti-human tissue factor antibody (Haemochrom, Essen, Germany) and an appropriate FITC-conjugated secondary antibody. Fluorescent cells were detected on a flow cytometer (Becton Dickinson, San Jose, Calif.).

Assay [2] relates to VCAM-1 on mouse endothelial cells. The experiment in a line: VCAM-1 upregulation on endothelial cells by TNFα (FACS). The assay is classed as cell-based. On the procedure: (§2) Mouse endothelial cells were seeded in 48 well tissue culture plates and allowed to adhere overnight. Cells were stimulated with TNFα at the following concentrations: 500 U/ml; 100 U/ml; 20 U/ml; 4 U/ml; 0.8 U/ml; 0.16 U/ml; and with medium only.
Endothelial cells were then investigated for upregulation of the adhesion molecule VCAM-1 by fluorescence activated cell stain (FACS). To this end, cells were stained with an antibody against murine VCAM-1, followed by an appropriate FITC-conjugated secondary antibody. Fluorescent cells were detected on a flow cytometer (Becton Dickinson, San Jose, Calif.).

A further assay relates to mouse endothelial cells. In words: Cell based two stage coagulation assay after TNFα stimulation. On the procedure:
as §2
Endothelial cells were also tested for coagulant activity in a cell based two stage coagulation assay. After incubation with TNFα, cells were washed and incubated with coagulation factor mix (0.5 μg/ml factor VIIa in a mix containing 2.8 μg/ml factor IX, 3.4 μg/ml factor X, 50 μM phospholipids, in calcium buffer). The supernatant of wells was transferred into a 96 well ELISA plate. Substrate S2765 was added and Factor Xa generation measured.

The test system of assay [3] is L540 human Hodgkin's disease tumors. The experiment in a line: Growth of L540 tumors after immunoglobulin-tTF conjugate and/or etoposide. The assay is classed as in vivo, mice. The following applies: day 14. How it is done: The tumor test systems were: i) L540 human Hodgkin's disease tumors growing in SCID mice; ii) C1300 Muγ (interferon-secreting) neuroblastoma growing in nu/nu mice; iii) H460 human non-small cell lung carcinoma growing in nu/nu mice. To establish solid tumors, 1.5×10^7 tumor cells were injected subcutaneously into the right anterior flank of SCID or BALB/c nu/nu mice (Charles River Labs., Wilmingham, Mass.). When the tumors had grown to various diameters, mice were assigned to different experimental groups, each containing 4 to 9 mice.
Other mice received equivalent quantities of bispecific antibody alone. The injections were performed over ˜45 seconds into one of the tail veins, followed by 200 μl of saline. The infusions were repeated six days later. Perpendicular tumor diameters were measured at regular intervals and tumor volumes were calculated.
Mice bearing L540 human Hodgkin's disease tumors were treated with a complex of tTF219 and a bispecific antibody together with the anti-cancer drug, etoposide, at a conventional dose.

On to TNFα, for which, in the assay on bEnd 3 cells (cells stimulated with TNFα (500 U/ml), then incubated with row agent (row Medium = stimulant alone), mix with 0.5 μg/ml factor VIIa), the “Factor Xa generation” value was 0.35 nkats2222. For the same molecule, the “Factor Xa generation due to Factor VIIa production” value with bEnd 3 cells (cells stimulated with TNFα (row Medium = stimulant alone), mix with 2 μg/ml factor VII and 0.01 μg/ml factor VIIa) is recorded as 1.23 nkats2222. For the same molecule, in assay [1], the “tissue factor expression on the surface of HUVEC” value is reported as “upregulated tissue factor expression”. Further, the “TNFα required for a measurable increase of VCAM-1 expression” value in assay [2] was 20 U/ml. For the same molecule, in the assay with mouse endothelial cells, the “TNFα at which an increase in coagulation versus negative control could be detected” value was 0.16 U/ml and the “dose for coagulation increase lower than for VCAM-1 increase” value was 125 fold.

In assay [3], `COc1cc([C@@H]2c3cc4c(cc3[C@@H](O[C@@H]3O[C@@H]5CO[C@@H](C)O[C@H]5[C@H](O)[C@H]3O)[C@H]3COC(=O)[C@H]23)OCO4)cc(OC)c1O` [etoposide] had an average tumor volume of 1400 mm^3.
